Key:
Assay type in all cases: in vivo, Pisum sativum L.
pea rms1 mutants = assay: Hydroponic culture test in pea; settings: 1 μM in hydroponic culture solution, 8 days
Protocol: For this example, ramosus (rms1) hyperbranched pea (Pisum sativum L.) mutants were used.
More particularly, rms1 (rms1-10) hyperbranched mutant plants were used. The nutritive solution (100%) was prepared by adding the following macronutrients to 1000 l of water: HNO3 (0.28 l), (NH4)2HPO4 (120 g), Ca(NO3)2 (40 g), Mg(NO3)2 (140 g), KNO3 (550 g), (NH4)2MoO4 (0.05 g), H3BO3 (15 g), MnSO4.H2O (2 g), ZnSO4.7H2O (1 g), CuSO4.5H2O (0.25 g), Sequestrene® (10 g) (Fe-EDTA solution). The pea seeds were germinated in moist sand for 6 days, then placed in holes of a lid (35 holes/lid, 20 mm in diameter) of an opaque PVC pot containing the hydroponic culture solution (47 l, pH 5.8).
In a first experiment, acetone or the compound to be tested (dissolved in acetone) was added to the hydroponic culture solution so as to obtain a final concentration of 0 or 1 μM of compound to be tested and 0.01% of acetone.
The hydroponic culture solution was continually aerated by means of an aquarium pump and replaced each week. 8 days after the start of the treatment, the lengths of bud/branch (nodes 1 to 6) were measured with an electronic sliding caliper.
This experiment was carried out for the compounds according to the invention (IIa) and (IIIb), and also the GR24 compound as comparative compound. A negative control (<<CTL 0>>), corresponding to a treatment with the solvent alone, was also carried out.
The results (mean data on 20 plants), in terms of, on the one hand, length of the branches at nodes 3 to 5 and, on the other hand, plant height, are shown respectively in FIGS. 11 and 12.
The same experiment was carried out for the compound in accordance with the invention (II″g) and the comparative compound GR24. Dimethyl sulfoxide (DMSO) or the compound to be tested, dissolved in DMSO, was added to the hydroponic culture solution so as to obtain a final concentration of 0 or 3 μM of compound to be tested and 0.01% of DMSO.
The results (mean data on 10 to 12 plants), in terms, on the one hand, of length of the branches at nodes 3 to 4 and, on the other hand, of plant height, are shown respectively in FIGS. 13 and 14.

pea rms4 mutant = tested on: pea rms4 mutant
Protocol: The protocol used is in accordance with that described in example 4 above. Compound concentrations of 100 nM and 3 μM were tested. A negative control consisting of the solvent alone (<<CTL 0>>) was also tested.
The number of dead buds following the treatment with 3 μM of compound was also determined after 8 days of treatment (on groups of 48 plants).

pea mutant rms1 = assay: Inhibition of branching in the pea, application directly on the axillary bud; settings: for activity (length of bud/branch at node 3, 8 days after treatment at node 3): mean of 24 plants
Protocol: Generally, in the pea, the first two scales are considered to be the first two nodes, the cotyledonary node being node 0.
The rms1 mutant is an “SMS” signal biosynthesis mutant, repressing branching of the plant.
Tests for activity on the inhibition of branching were carried out in the following way.
The strigolactone-deficient rms1 (ccd8) pea mutants described in Beveridge et al., 1997, were used for the test (M3T884 line derived from the Térèse variety).
The activity of the compounds (IIa), (II′d) and (II′e) in accordance with the invention and of the comparative compound GR24 was evaluated at respective doses of 10 nM, 100 nM and 1 μM, by treatment at node 3. […]
24 plants were sown per treatment. 8 days after sowing, the treatment was carried out on the axillary bud at node 3, by application of 10 μl of each solution to be tested, directly on the bud, by means of a micropipette. The lateral outgrowths at nodes 1 and 2 were removed in order to encourage the growth of the axillary buds at the higher nodes. […]
The activity of the compounds (IIa), (IIb), (IIc), (II′d), (II′e) and (II′f) in accordance with the invention was evaluated at respective doses of 100 nM and 1 μM, by treatment at node 3.
For this, solutions containing each compound to be tested, in 1% acetone, 4% propylene glycol 1450 and 50% ethanol, were used.
The activity of the compounds (IIa), (IIIa), (IIIb) and (IIIc) in accordance with the invention, and also of GR24 as comparative compound, was evaluated at respective doses of 100 nM and 1 μM, by treatment at node 3, according to the protocol described above with reference to experiment 2.
A sample consisting only of the solvent, and without active compound, was also tested as negative control, termed “CTL 0”.
In this experiment, the activity of the compound (IIIa) in accordance with the invention, and also of GR24 as comparative compound, was evaluated at respective doses of 1 nM, 10 nM, 100 nM and 1 μM, by treatment at node 3, according to the protocol described above with reference to experiment 2, for doses of 10 nM, 100 nM and 1 μM of compounds.
A sample consisting only of the solvent, and without active compound (“CTL 0”) was also tested as a negative control. A nontreated (“NT”) control was also carried out.
(§1) A dose-response test for evaluating the activity of the compounds by deposition at node 3 was carried out according to the protocol described above with reference to experiment 2, for the compound in accordance with the invention (IIa) and for the comparative compounds GR24, Comp. 3 and Comp. 4. Concentrations of 10 nM, 100 nM and 1 μM were tested.
A sample consisting only of the solvent, and without active compound (“CTL 0”), was also tested as a negative control. A nontreated (“NT”) control was also carried out.
as §1, with “Comp. 5” for “Comp. 3”, “Comp. 6.” for “Comp. 4.”, “10 nM and” for “10 nM,”, “nM” for “nM and 1 μM”, “tested. […]” for “tested.”
The sprouting of the axillary buds at node 4 was measured 8 days after the treatment by means of a digital sliding caliper.
The activity of the compound (IIIa) in accordance with the invention on bud growth at node 3 was evaluated at a dose of 1000 nM by treatment at node 3. The GR24 compound was tested at the same concentration as comparative compound. […]

## CC1=C(C)C(Sc2ccc(Cl)cc2)OC1=O (stereo not drawn) [Compound (IIa), 5-((4-chlorophenyl)thio)-3,4-dimethylfuran-2(5H)-one]
Pea rms1 mutants; FIG. 11
  length of the branches at nodes 3 to 5: activity of the compounds in accordance with the invention (IIa) and (IIIb) on all the branches of nodes 3 to 5
Pea rms1 mutants; FIG. 12
  plant height: significant effect on plant height is also demonstrated, comparable between the comparative compound GR24 and the compound in accordance with the invention (IIa)
Pea rms4 mutant; 100 nM and 3 μM, 8 days after treatment at node 3, FIG. 15
  length of bud/branch at node 3 (toxicity): absence of effects of the compounds in accordance with the invention (IIa) and (IIIb) compared with a negative control, and between the two treatment doses
Pea rms4 mutant; 3 μM, 8 days of treatment, groups of 48 plants, FIG. 16
  number of dead buds after treatment: no significant difference is notable regarding the number of dead buds following the treatment
Pea mutant rms1; Experiment 1, FIG. 3, 10 nM, 100 nM, 1 μM, at the highest concentrations
  inhibitory activity on bud growth (length of bud/branch at node 3, 8 days after treatment at node 3): inhibitory activity on bud growth which is greater than that of the comparative compound GR24
Pea mutant rms1; Experiment 2, FIG. 4, 100 nM and 1 μM
  inhibitory activity on bud growth (length of bud/branch at node 3, 8 days after treatment at node 3): most active
Pea mutant rms1; Experiment 3, FIG. 5, 100 nM and 1 μM
  bud growth inhibition (length of bud/branch at node 3, 8 days after treatment at node 3): activity similar to that of the comparative compound GR24
Pea mutant rms1; Experiment 5, FIG. 7, 10 nM, 100 nM and 1 μM
  activity (length of bud/branch at node 3, 8 days after treatment at node 3): activity which is greater than the comparative compounds provided by the prior art, Comp. 3 and Comp. 4, this being at all the doses tested
Pea mutant rms1; Experiment 6, FIG. 8, 10 nM and 100 nM
  activity (length of bud/branch at node 3, 8 days after treatment at node 3): activity which is greater than the comparative compounds provided by the prior art, Comp. 5 and Comp. 6, this being at all the doses tested

— US9532569B2 (INSTITUT NATIONAL DE LA RECHERCHE AGRONOMIQUE, priority 2012, dated 2017)
